Test results taken from ChEMBL document CHEMBL5321225, “DeepCancerMap: A versatile deep learning platform for target- and cell-based anticancer drug discovery” (Eur J Med Chem, 2023).

Experiments:
A549 = experiment: Antiproliferative activity against human A549 cells assessed as reduction in cell viability; assay type: functional, cell-based
CNE-2 = experiment: Antiproliferative activity against human CNE-2 cells assessed as reduction in cell viability; assay type: functional, cell-based

SMILES: CCCCCCC(=O)Nc1ncc(Cc2ccc(OC)cc2)s1
- IC50 (A549): > 50 µM
- IC50 (CNE-2): 2030 nM

SMILES: Cc1ccc(C(=O)Nc2ncc(Cc3cccc(Cl)c3)s2)cc1
- IC50 (A549): > 50 µM
- IC50 (CNE-2): 2990 nM
